# Assay results from PubChem BioAssay AID1745844 (Carcinogenic Potency Database (CPDB), 2022).
# Calls of active or inactive are those of the source. The rule behind the calls is not given here.
# System: rodent lifetime carcinogenesis bioassay, tumor incidence TD50
# Experiment: carcinogenic potency in animals, long-term in vivo studies, CPDB compilation (AID 1745844)
structure (smiles),measurement,setting,value
O=S(=O)(O)O,TD50,"hamster, strain Syrian Golden, females, in drinking water, site: cecum, lesion: one or several types, types not named, dosed 108 weeks, study length 108 weeks",115 mg/kg/day (inactive)
same,TD50,"hamster, strain Syrian Golden, females, in drinking water, site: thyroid gland, lesion: adenoma, dosed 108 weeks, study length 108 weeks",124 mg/kg/day (inactive)
same,TD50,"hamster, strain Syrian Golden, males, in drinking water, site: cecum, lesion: one or several types, types not named, dosed 119 weeks, study length 119 weeks",136 mg/kg/day (inactive)
same,carcinogen call,"hamster, strain Syrian Golden, males, in drinking water, site: liver, lesion: hemangioma, dosed 119 weeks, study length 119 weeks",negative (inactive)
same,TD50,"hamster, strain Syrian Golden, males, in drinking water, site: liver, lesion: hepatocellular adenoma, dosed 91 weeks, study length 91 weeks",87.5 mg/kg/day
same,TD50,"hamster, strain Syrian Golden, males, in drinking water, site: liver, lesion: hepatocellular adenoma, dosed 104 weeks, study length 104 weeks",2590 mg/kg/day
same,TD50,"hamster, strain Syrian Golden, males, in drinking water, site: liver, lesion: hepatocellular carcinoma, dosed 91 weeks, study length 91 weeks",464 mg/kg/day
same,TD50,"hamster, strain Syrian Golden, males, in drinking water, site: liver, lesion: hepatocellular carcinoma, dosed 104 weeks, study length 104 weeks",181 mg/kg/day
same,TD50,"hamster, strain Syrian Golden, males, in drinking water, site: liver, lesion: histiocytoma, malignant, dosed 104 weeks, study length 104 weeks",2580 mg/kg/day
same,TD50,"hamster, strain Syrian Golden, males, in drinking water, site: liver, lesion: reticulum-cell sarcoma, dosed 104 weeks, study length 104 weeks",2590 mg/kg/day
same,TD50,"hamster, strain Syrian Golden, males, in drinking water, site: liver, lesion: several types, types named in the paper, dosed 91 weeks, study length 91 weeks",87.5 mg/kg/day
same,carcinogen call,"mouse, strain AKR, females, in drinking water, site: liver, lesion: one or several types, types not named, dosed 69 weeks, study length 69 weeks",negative (inactive)
same,carcinogen call,"mouse, strain AKR, females, in drinking water, site: lung, lesion: one or several types, types not named, dosed 69 weeks, study length 69 weeks",negative (inactive)
same,carcinogen call,"mouse, strain AKR, males, in drinking water, site: liver, lesion: hemangioma, dosed 69 weeks, study length 69 weeks",negative (inactive)
same,carcinogen call,"mouse, strain AKR, males, in drinking water, site: lung, lesion: adenoma, dosed 69 weeks, study length 69 weeks",negative (inactive)
same,TD50,"mouse, strain C3H (MTV+), females, in drinking water, site: lung, lesion: adenoma, dosed 92 weeks, study length 92 weeks",109 mg/kg/day
same,TD50,"mouse, strain CBA/Cb/Se, females, by gavage, site: liver, lesion: hepatoma, dosed 36 weeks, study length 74 weeks",6.27 mg/kg/day
same,TD50,"mouse, strain CBA/Cb/Se, females, by gavage, site: lung, lesion: several types, types named in the paper, dosed 36 weeks, study length 74 weeks",3.35 mg/kg/day
same,TD50,"mouse, strain CBA/Cb/Se, males, by gavage, site: liver, lesion: hepatoma, dosed 36 weeks, study length 84 weeks",8.43 mg/kg/day
same,TD50,"mouse, strain CBA/Cb/Se, males, by gavage, site: lung, lesion: several types, types named in the paper, dosed 36 weeks, study length 84 weeks",5.1 mg/kg/day
same,carcinogen call,"mouse, strain ICRC x C3H (Jax), females, by gavage, site: liver, lesion: one or several types, types not named, dosed 73 weeks, study length 73 weeks",negative (inactive)
same,TD50,"mouse, strain ICRC x C3H (Jax), females, by gavage, site: lung, lesion: adenocarcinoma, dosed 73 weeks, study length 73 weeks",10.3 mg/kg/day
same,carcinogen call,"mouse, strain ICRC x C3H (Jax), males, by gavage, site: liver, lesion: one or several types, types not named, dosed 73 weeks, study length 73 weeks",negative (inactive)
same,TD50,"mouse, strain ICRC x C3H (Jax), males, by gavage, site: lung, lesion: adenocarcinoma, dosed 73 weeks, study length 73 weeks",79.5 mg/kg/day
same,carcinogen call,"mouse, strain Swiss albino, females, in drinking water, site: liver, lesion: hemangioma, dosed 95 weeks, study length 95 weeks",negative (inactive)
same,TD50,"mouse, strain Swiss albino, females, in drinking water, site: lung, lesion: adenocarcinoma, dosed 95 weeks, study length 95 weeks",146 mg/kg/day
same,TD50,"mouse, strain Swiss albino, females, in drinking water, site: lung, lesion: adenoma, dosed 95 weeks, study length 95 weeks",26.7 mg/kg/day
same,TD50,"mouse, strain Swiss albino, females, in drinking water, site: lung, lesion: several types, types named in the paper, dosed 95 weeks, study length 95 weeks",23.8 mg/kg/day
same,TD50,"mouse, strain Swiss albino, males, in drinking water, site: liver, lesion: several types, types named in the paper, dosed 94 weeks, study length 94 weeks",78.4 mg/kg/day
same,TD50,"mouse, strain Swiss albino, males, in drinking water, site: lung, lesion: adenocarcinoma, dosed 94 weeks, study length 94 weeks",74.2 mg/kg/day
same,TD50,"mouse, strain Swiss albino, males, in drinking water, site: lung, lesion: adenoma, dosed 94 weeks, study length 94 weeks",23.1 mg/kg/day
same,TD50,"mouse, strain Swiss albino, males, in drinking water, site: lung, lesion: several types, types named in the paper, dosed 94 weeks, study length 94 weeks",18.7 mg/kg/day
same,TD50,"mouse, strain Swiss, both sexes, by gavage, site: lung, lesion: adenocarcinoma, dosed 95 weeks, study length 95 weeks",9.81 mg/kg/day
same,TD50,"mouse, strain Swiss, both sexes, by gavage, site: lung, lesion: one or several types, types not named, dosed 54 weeks, study length 54 weeks",3.92 mg/kg/day
same,TD50,"rat, strain Cb/Sc, females, by gavage, site: lung, lesion: several types, types named in the paper, dosed 68 weeks, study length 94 weeks",42.4 mg/kg/day
same,TD50,"rat, strain Cb/Sc, males, by gavage, site: liver, lesion: several types, types named in the paper, dosed 68 weeks, study length 94 weeks",39.4 mg/kg/day
same,TD50,"rat, strain Cb/Sc, males, by gavage, site: lung, lesion: several types, types named in the paper, dosed 68 weeks, study length 94 weeks",60.1 mg/kg/day
O=NN1CCC1,TD50,"hamster, strain Syrian Golden, males, by gavage, site: any site (literature study), lesion: several types, types named in the paper, dosed 50 weeks, study length 85 weeks",8.83 mg/kg/day
same,TD50,"hamster, strain Syrian Golden, males, by gavage, site: liver, lesion: hepatocellular adenoma, dosed 50 weeks, study length 85 weeks",10.7 mg/kg/day
same,TD50,"hamster, strain Syrian Golden, males, by gavage, site: liver, lesion: several types, types named in the paper, dosed 50 weeks, study length 85 weeks",7.14 mg/kg/day
C=Cc1ccccc1,TD50,"mouse, strain B6C3F1, females, by gavage, site: any site (literature study), lesion: several types, types named in the paper, dosed 78 weeks, study length 91 weeks",625 mg/kg/day
same,TD50,"mouse, strain B6C3F1, females, by gavage, site: liver, lesion: hepatocellular adenoma + hepatocellular carcinoma + neoplastic nodule, dosed 78 weeks, study length 91 weeks",905 mg/kg/day
same,TD50,"mouse, strain B6C3F1, females, by gavage, site: liver, lesion: hepatocellular adenoma, dosed 78 weeks, study length 91 weeks",905 mg/kg/day (inactive)
same,TD50,"mouse, strain B6C3F1, females, by gavage, site: lung, lesion: alveolar/bronchiolar adenoma + alveolar/bronchiolar carcinoma, dosed 78 weeks, study length 91 weeks",1380 mg/kg/day
same,TD50,"mouse, strain B6C3F1, males, by gavage, site: any site (literature study), lesion: several types, types named in the paper, dosed 78 weeks, study length 91 weeks",659 mg/kg/day
same,TD50,"mouse, strain B6C3F1, males, by gavage, site: liver, lesion: hepatocellular adenoma + hepatocellular carcinoma + neoplastic nodule, dosed 78 weeks, study length 91 weeks",895 mg/kg/day
same,TD50,"mouse, strain B6C3F1, males, by gavage, site: lung, lesion: alveolar/bronchiolar adenoma + alveolar/bronchiolar carcinoma, dosed 78 weeks, study length 91 weeks",360 mg/kg/day
same,TD50,"mouse, strain Charles River CD1, females, inhaled, site: any site (literature study), lesion: several types, types named in the paper, dosed 98 weeks, study length 98 weeks",400 mg/kg/day
same,TD50,"mouse, strain Charles River CD1, females, inhaled, site: liver, lesion: several types, types named in the paper, dosed 98 weeks, study length 98 weeks",13600 mg/kg/day
same,TD50,"mouse, strain Charles River CD1, females, inhaled, site: lung, lesion: alveolar/bronchiolar adenoma, dosed 98 weeks, study length 98 weeks",331 mg/kg/day
same,TD50,"mouse, strain Charles River CD1, females, inhaled, site: lung, lesion: alveolar/bronchiolar carcinoma, dosed 98 weeks, study length 98 weeks",1300 mg/kg/day
same,TD50,"mouse, strain Charles River CD1, males, inhaled, site: any site (literature study), lesion: several types, types named in the paper, dosed 104 weeks, study length 105 weeks",209 mg/kg/day
same,TD50,"mouse, strain Charles River CD1, males, inhaled, site: liver, lesion: hepatocellular carcinoma, dosed 104 weeks, study length 105 weeks",2860 mg/kg/day
same,TD50,"mouse, strain Charles River CD1, males, inhaled, site: lung, lesion: alveolar/bronchiolar adenoma, dosed 78 weeks, study length 78 weeks",465 mg/kg/day
same,TD50,"mouse, strain Charles River CD1, males, inhaled, site: lung, lesion: alveolar/bronchiolar adenoma, dosed 104 weeks, study length 105 weeks",154 mg/kg/day
same,TD50,"mouse, strain Charles River CD1, males, inhaled, site: lung, lesion: alveolar/bronchiolar carcinoma, dosed 104 weeks, study length 105 weeks",1770 mg/kg/day
same,TD50,"rat, strain Charles River CD (Sprague-Dawley), females, inhaled, site: liver, lesion: hepatocellular adenoma, dosed 104 weeks, study length 106 weeks",12200 mg/kg/day (inactive)
same,carcinogen call,"rat, strain Charles River CD (Sprague-Dawley), females, inhaled, site: liver, lesion: one or several types, types not named, dosed 52 weeks, study length 52 weeks",negative (inactive)
same,carcinogen call,"rat, strain Charles River CD (Sprague-Dawley), males, inhaled, site: liver, lesion: one or several types, types not named, dosed 52 weeks, study length 52 weeks",negative (inactive)
same,TD50,"rat, strain Charles River CD (Sprague-Dawley), males, inhaled, site: liver, lesion: several types, types named in the paper, dosed 104 weeks, study length 106 weeks",9930 mg/kg/day (inactive)
same,carcinogen call,"rat, strain Fischer 344, females, by gavage, site: any site (literature study), lesion: several types, types named in the paper, dosed 90 weeks, study length 97 weeks",negative (inactive)
same,TD50,"rat, strain Fischer 344, females, by gavage, site: liver, lesion: hepatocellular adenoma + hepatocellular carcinoma + neoplastic nodule, dosed 90 weeks, study length 97 weeks",25200 mg/kg/day
same,TD50,"rat, strain Fischer 344, males, by gavage, site: any site (literature study), lesion: several types, types named in the paper, dosed 90 weeks, study length 97 weeks",3410 mg/kg/day (inactive)
same,TD50,"rat, strain Sprague-Dawley, females, by gavage, site: any site (literature study), lesion: several types, types named in the paper, dosed 52 weeks, study length 104 weeks",12 mg/kg/day
same,TD50,"rat, strain Sprague-Dawley, females, inhaled, site: any site (literature study), lesion: malignant tumor, dosed 52 weeks, study length 104 weeks",205 mg/kg/day
same,TD50,"rat, strain Sprague-Dawley, females, inhaled, site: any site (literature study), lesion: several types, types named in the paper, dosed 52 weeks, study length 104 weeks",48.7 mg/kg/day
same,TD50,"rat, strain Sprague-Dawley, females, inhaled, site: mammary tissue, wider than the gland, lesion: malignant tumor, dosed 52 weeks, study length 104 weeks",57.1 mg/kg/day
same,TD50,"rat, strain Sprague-Dawley, females, inhaled, site: mammary tissue, wider than the gland, lesion: several types, types named in the paper, dosed 52 weeks, study length 104 weeks",23.3 mg/kg/day
same,TD50,"rat, strain Sprague-Dawley, males, by gavage, site: any site (literature study), lesion: malignant tumor, dosed 52 weeks, study length 104 weeks",1090 mg/kg/day
same,TD50,"rat, strain Sprague-Dawley, males, by gavage, site: any site (literature study), lesion: several types, types named in the paper, dosed 52 weeks, study length 104 weeks",1220 mg/kg/day
same,TD50,"rat, strain Sprague-Dawley, males, inhaled, site: any site (literature study), lesion: several types, types named in the paper, dosed 52 weeks, study length 104 weeks",107 mg/kg/day
